Assay results reported in patent US8586551B2, “18-membered macrocycles and analogs thereof” (Optimer Pharmaceuticals, Inc., priority 2005, dated 2013).

Key:
C. difficile = test: Post-antibiotic effect (PAE) in C. difficile; type: cell-based; settings: at 4× the MIC, clinical isolate LC3
Experimental: The term “PAE” or “post-antibiotic effect” refers to a well-established pharmacodynamic parameter that reflects the persistent suppression of bacterial growth following antibiotic exposure.
Vancomycin and rifampin were tested additionally versus LC3.
Because of the long duration of this effect, an exact PAE was not calculated.

[1] = test system: C. difficile clinical isolates; test: MIC via agar dilution versus 110 clinical isolates of C. difficile; type: cell-based; settings: 110 clinical isolates

In the case of `CN[C@H](CC(C)C)C(=O)N[C@H]1C(=O)N[C@@H](CC(N)=O)C(=O)N[C@H]2C(=O)N[C@H]3C(=O)N[C@H](C(=O)N[C@H](C(=O)O)c4cc(O)cc(O)c4-c4cc3ccc4O)[C@H](O)c3ccc(c(Cl)c3)Oc3cc2cc(c3O[C@@H]2O[C@H](CO)[C@@H](O)[C@H](O)[C@H]2O[C@H]2C[C@](C)(N)[C@H](O)[C@H](C)O2)Oc2ccc(cc2Cl)[C@H]1O` [Vancomycin, reference compound], the PAE (C. difficile) is reported as “less than an hour” and the “MIC range” value [1] is reported as 0.06 to 4 µg/mL.

For `Cc1ncc([N+](=O)[O-])n1CCO` [Metronidazole, reference compound], the “MIC range” value [1] was 0.025 to 0.5 µg/mL.
